Measurements published in publication PMC8196580, “Identification of Kaurane-Type Diterpenes as Inhibitors of Leishmania Pteridine Reductase I” (Molecules, 2021).
Read-outs that look alike come from different tables or passages of the source.

Legend:
L. major [1] = test system: L. major; parameters: method as in ChEMBL; conditions: ref ChEMBL, cited from earlier work
L. major [2] = assay: ChEMBL dataset of pIC50 values against L. major used for the RF model (Table S1); format: cell-based, Leishmania major; note: call rule not given here
[3] = ChemBL structures with pIC50 values used for Random forest model construction (Table S1)
[4] = Active/Inactive class assigned to ChemBL structures for Random forest model construction (Table S1)
[5] = ChemBL structures with pIC50 values used for Random forest model construction, L. major
[6] = Active/Inactive class assigned to the ChEMBL pIC50 value for Random forest model construction, ref ChEMBL

SMILES | pIC50 Value (L. major [1]; [3]) | Outcome (L. major [2]; [4]) | pIC50 Value (L. major [1]; [5]) | Outcome (L. major [2]; [6])
Cc1ccc2cc(C3CC(c4ccc(Cl)s4)=NN3)c(Cl)nc2c1 (centres unmarked) [CHEMBL2236141] | 5.64 | Active | – | –
Cc1ccc2cc(C3CC(c4cc(Cl)sc4Cl)=NN3)c(Cl)nc2c1 (centres unmarked) [CHEMBL2236142] | 5.75 | Active | – | –
Cc1ccc2cc(C3CC(c4sccc4Br)=NN3)c(Cl)nc2c1 (centres unmarked) [CHEMBL2236143] | 5.68 | Active | – | –
CC(=O)CCCCCCCCCC[C@H]1CC[C@@H](O)[C@@H](C)N1 [CHEMBL2262843] | – | – | 5.27 | Active
Cc1ccc(-c2nc3ccccc3[nH]2)cc1 [CHEMBL2283280] | 5.42 | Active | – | –
Cc1ccc(-c2nc3ccc([N+](=O)[O-])cc3[nH]2)o1 [CHEMBL2295863] | 5.58 | Active | – | –
O=[N+]([O-])c1ccc2nc(-c3ccc(F)cc3)[nH]c2c1 [CHEMBL2297902] | 5.52 | Active | – | –
CCCCOc1ccc(-c2nc3cc([N+](=O)[O-])ccc3[nH]2)cc1 [CHEMBL2297903] | 5.61 | Active | – | –
CC(C)c1ccc(-c2nc3cc([N+](=O)[O-])ccc3[nH]2)cc1 [CHEMBL2297904] | 5.55 | Active | – | –
O=[N+]([O-])c1ccc2[nH]c(-c3c[nH]c4ccccc34)nc2c1 [CHEMBL2297905] | 5.65 | Active | – | –
O=[N+]([O-])c1ccc2nc(-c3ccc[nH]3)[nH]c2c1 [CHEMBL2297906] | 5.40 | Active | – | –
O=[N+]([O-])c1ccc2nc(-c3cccs3)[nH]c2c1 [CHEMBL2297907] | 5.48 | Active | – | –
COc1cccc(-c2nc3ccccc3[nH]2)c1 [CHEMBL2297908] | 5.46 | Active | – | –
CC(C)c1ccc(-c2nc3ccccc3[nH]2)cc1 [CHEMBL2298014] | 5.57 | Active | – | –
c1ccc2[nH]c(-c3c[nH]c4ccccc34)nc2c1 [CHEMBL2298015] | 5.43 | Active | – | –
c1c[nH]c(-c2nc3ccccc3[nH]2)c1 [CHEMBL2298016] | 5.46 | Active | – | –
Cc1ccc(-c2nc3ccccc3[nH]2)o1 [CHEMBL2298017] | 5.37 | Active | – | –
COc1cccc(-c2nc3ccc([N+](=O)[O-])cc3[nH]2)c1 [CHEMBL2298018] | 5.52 | Active | – | –
CC[C@H](CO)Nc1nc(NCc2cccc(OC)c2O)c2ncn(C(C)C)c2n1 [CHEMBL2349189] | – | – | 4.01 | Inactive
NCCOc1cc(C(=O)Nc2cc(OCCN)c3ccccc3n2)nc(C(=O)Nc2cc(OCCN)c3ccccc3n2)c1 [CHEMBL2349416] | 5.30 | Active | – | –
CC(=O)C1=C(C)NC(=S)NC1c1ccccc1 (centres unmarked) [CHEMBL2359517] | 5.50 | Active | – | –
COc1ccccc1C(=O)N/N=C/c1ccccn1 [CHEMBL2382029] | – | – | 4.22 | Inactive
COc1ccccc1C(=O)N/N=C/c1ccncc1 [CHEMBL2382030] | – | – | 4.12 | Inactive
COC(=O)c1ccc(/C=N/NC(=O)c2ccccc2OC)cc1 [CHEMBL2382031] | – | – | 4.81 | Inactive
COc1ccccc1C(=O)N/N=C/c1ccc(Br)c(F)c1 [CHEMBL2382032] | – | – | 4.11 | Inactive
COc1ccccc1C(=O)N/N=C/c1cc(O)c(O)c(O)c1 [CHEMBL2382033] | – | – | 4.50 | Inactive

SMILES | pIC50 Value (L. major [1]; [3]) | Outcome (L. major [2]; [4]) | pIC50 Value (L. major [1]; [5]) | Outcome (L. major [2]; [6])
COc1ccccc1C(=O)N/N=C/c1ccc(O)c(O)c1 [CHEMBL2382034] | 5.48 | Active | – | –
COc1ccccc1C(=O)N/N=C/c1cc(O)cc(O)c1 [CHEMBL2382035] | – | – | 4.55 | Inactive
COc1ccccc1C(=O)N/N=C/c1cccc(O)c1 [CHEMBL2382036] | – | – | 4.48 | Inactive
COc1ccccc1C(=O)N/N=C/c1ccccc1O [CHEMBL2382037] | – | – | 4.45 | Inactive
COc1ccc(O)c(/C=N/NC(=O)c2ccccc2OC)c1 [CHEMBL2382038] | – | – | 4.00 | Inactive
COc1ccc(/C=N/NC(=O)c2ccccc2OC)cc1Br [CHEMBL2382039] | – | – | 5.12 | Active
COc1ccc(/C=N/NC(=O)c2ccccc2OC)cc1OC [CHEMBL2382040] | – | – | 4.88 | Inactive
COc1ccc(/C=N/NC(=O)c2ccccc2OC)cc1 [CHEMBL2382041] | – | – | 4.40 | Inactive
COc1ccccc1C(=O)N/N=C/c1cccnc1 [CHEMBL2382042] | 5.71 | Active | – | –
COc1ccccc1C(=O)N/N=C/c1cccs1 [CHEMBL2382043] | 5.60 | Active | – | –
COc1ccccc1C(=O)N/N=C/c1ccc([N+](=O)[O-])cc1 [CHEMBL2382044] | – | – | 4.50 | Inactive
COc1ccccc1C(=O)N/N=C/c1ccc(Cl)cc1 [CHEMBL2382045] | – | – | 4.16 | Inactive
COc1ccccc1C(=O)N/N=C/c1cccc(O)c1O [CHEMBL2382046] | – | – | 4.17 | Inactive
COc1ccccc1C(=O)N/N=C/c1cc(O)ccc1O [CHEMBL2382047] | – | – | 4.46 | Inactive
COc1ccccc1C(=O)N/N=C/c1ccc(O)cc1O [CHEMBL2382048] | – | – | 4.05 | Inactive
COc1ccccc1C(=O)N/N=C/c1ccc(O)cc1 [CHEMBL2382049] | – | – | 4.24 | Inactive
COc1ccc(/C=N/NC(=O)c2ccccc2OC)c(O)c1 [CHEMBL2382050] | – | – | 4.88 | Inactive
COc1ccc(/C=N/NC(=O)c2ccccc2OC)cc1O [CHEMBL2382051] | – | – | 4.34 | Inactive
COc1ccccc1C(=O)N/N=C/c1ccc(OC)c(O)c1I [CHEMBL2382052] | – | – | 4.20 | Inactive
COc1cc(/C=N/NC(=O)c2ccccc2OC)cc(OC)c1 [CHEMBL2382053] | – | – | 4.27 | Inactive
C/C=C/C=C/c1nc2ccccc2n2cccc12 [CHEMBL3260206] | 5.33 | Active | – | –
C/C=C/C=C/c1nc2cc(OC)ccc2n2cccc12 [CHEMBL3260207] | 5.52 | Active | – | –
C/C=C/C=C/c1nc2ccc(OC)cc2n2cccc12 [CHEMBL3260208] | 5.57 | Active | – | –
C/C=C/C=C/c1nc2cccc(OC)c2n2cccc12 [CHEMBL3260209] | 5.48 | Active | – | –
CCC/C=C/C=C/c1nc2ccccc2n2cccc12 [CHEMBL3260210] | 5.41 | Active | – | –
CCC/C=C/C=C/c1nc2cc(OC)ccc2n2cccc12 [CHEMBL3260211] | 5.55 | Active | – | –
